Assay: xn = mol fraction of the nth substance listed
Settings: 101 kPa, Liquid; for viscosity: Capillary tube (Ostwald / Ubbelohde) method; for mass density: Pycnometric method

CC1OC(C)OC(C)O1 (stereo not drawn) [2,4,6-trimethyl-1,3,5-trioxane] + COC(C)=O
Settings | mass density, 298.15 K [kg/m3] | mass density, 303.15 K [kg/m3] | mass density, 308.15 K [kg/m3] | viscosity, 298.15 K [mPa·s] | viscosity, 303.15 K [mPa·s] | viscosity, 308.15 K [mPa·s]
x1 = 0.0203 | 928.4 | 921.5 | 918 | 0.378 | 0.359 | 0.345
x1 = 0.0405 | 930.1 | 923.3 | 919.7 | 0.388 | 0.367 | 0.35
x1 = 0.0601 | 931.8 | 925 | 921.4 | 0.398 | 0.373 | 0.355
x1 = 0.0807 | 933.4 | 926.7 | 923.1 | 0.408 | 0.38 | 0.359
x1 = 0.1002 | 935 | 928.4 | 924.7 | 0.416 | 0.386 | 0.362
x1 = 0.201 | 942.9 | 936.6 | 932.6 | 0.455 | 0.41 | 0.372
x1 = 0.3009 | 950.3 | 944.2 | 939.8 | 0.489 | 0.429 | 0.374
x1 = 0.397 | 956.9 | 951 | 946.3 | 0.522 | 0.45 | 0.377
x1 = 0.5001 | 963.5 | 957.7 | 952.7 | 0.566 | 0.481 | 0.39
x1 = 0.7002 | 974.8 | 969.1 | 963.5 | 0.696 | 0.593 | 0.479
x1 = 0.8005 | 979.8 | 974 | 968.2 | 0.795 | 0.688 | 0.57
x1 = 0.9001 | 984.3 | 978.5 | 972.5 | 0.925 | 0.816 | 0.704
x1 = 1 | 988.4 | 982.6 | 976.4 | 1.107 | 1.001 | 0.907
